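Abbreviation: GI50, concentration required for 50% inhibition of growth. TGI marks complete inhibition of growth.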
What was measured:
Assay in all cases: DTP human tumour cell line panel, 384-well format
SF-295 CNS = tested on: SF-295 CNS
IGROV1 ovarian = tested on: IGROV1 ovarian
COLO 205 colon = tested on: COLO 205 colon
T-47D breast = tested on: T-47D breast
OVCAR-5 ovarian = tested on: OVCAR-5 ovarian
SNB-75 CNS = tested on: SNB-75 CNS
786-0 renal = tested on: 786-0 renal
HCT-116 colon = tested on: HCT-116 colon
NCI/ADR-RES ovarian = tested on: NCI/ADR-RES ovarian
CAKI-1 renal = tested on: CAKI-1 renal
BT-549 breast = tested on: BT-549 breast
A498 renal = tested on: A498 renal
UACC-62 melanoma = tested on: UACC-62 melanoma

Cc1ncsc1-c1ccc(CNC(=O)[C@@H]2C[C@@H](O)CN2C(=O)[C@@H](NC(=O)C2(C#N)CC2)C(C)(C)C)cc1
GI50 (SF-295 CNS): > 100 µM
TGI (SF-295 CNS): > 100 µM
GI50 (IGROV1 ovarian): > 100 µM
TGI (IGROV1 ovarian): > 100 µM
GI50 (COLO 205 colon): > 100 µM
TGI (COLO 205 colon): > 100 µM
GI50 (T-47D breast): > 100 µM
TGI (T-47D breast): > 100 µM
GI50 (OVCAR-5 ovarian): > 100 µM
TGI (OVCAR-5 ovarian): > 100 µM
GI50 (SNB-75 CNS): > 94.8 µM
TGI (SNB-75 CNS): > 100 µM
GI50 (786-0 renal): > 100 µM
TGI (786-0 renal): > 100 µM
GI50 (HCT-116 colon): > 100 µM
TGI (HCT-116 colon): > 100 µM
GI50 (NCI/ADR-RES ovarian): > 100 µM
TGI (NCI/ADR-RES ovarian): > 100 µM
GI50 (CAKI-1 renal): > 100 µM
TGI (CAKI-1 renal): > 100 µM
GI50 (BT-549 breast): > 100 µM
TGI (BT-549 breast): > 100 µM
GI50 (A498 renal): > 100 µM
TGI (A498 renal): > 100 µM
GI50 (UACC-62 melanoma): > 100 µM
TGI (UACC-62 melanoma): > 100 µM

O=C(NCc1ccncc1)C12CC3CC(C1)CC(c1ccc(Cl)cc1)(C3)C2
GI50 (SF-295 CNS): 14.1 µM
TGI (SF-295 CNS): 27.2 µM
GI50 (IGROV1 ovarian): 12.1 µM
TGI (IGROV1 ovarian): 24.6 µM
GI50 (COLO 205 colon): 13.2 µM
TGI (COLO 205 colon): 26.1 µM
GI50 (T-47D breast): 9.72 µM
TGI (T-47D breast): 23 µM
GI50 (OVCAR-5 ovarian): 18 µM
TGI (OVCAR-5 ovarian): 31.9 µM
GI50 (SNB-75 CNS): 15 µM
TGI (SNB-75 CNS): 28.3 µM
GI50 (786-0 renal): 13.4 µM
TGI (786-0 renal): 26.3 µM
GI50 (HCT-116 colon): 9.03 µM
TGI (HCT-116 colon): 22.7 µM
GI50 (NCI/ADR-RES ovarian): 9.62 µM
TGI (NCI/ADR-RES ovarian): 21.8 µM
GI50 (CAKI-1 renal): 14.9 µM
TGI (CAKI-1 renal): 28.3 µM
GI50 (BT-549 breast): 8.85 µM
TGI (BT-549 breast): 21.5 µM
GI50 (A498 renal): 12.7 µM
TGI (A498 renal): 25.5 µM
GI50 (UACC-62 melanoma): 14 µM
TGI (UACC-62 melanoma): 27.1 µM

Source: PubChem BioAssay (NCI)
